ChEMBL document CHEMBL3046002, “Synthesis and antimicrobial activity of coumarin pyrazole pyrimidine 2,4,6(1H,3H,5H)triones and thioxopyrimidine4,6(1H,5H)diones” (2013)
≈ marks a conversion by molar mass, not a printed value. Calls of active or inactive are those of the source. No cut-off for these calls is given here.

Each molecule was assayed on Pseudomonas aeruginosa (assay: Antimicrobial activity against Pseudomonas aeruginosa assessed as growth inhibition after 24 hr by broth dilution method). Details: not given.
Format: functional

`O=C1NC(=O)C(=Cc2cn(-c3ccccc3)nc2-c2cc3cc(Br)c(Br)cc3oc2=O)C(=O)N1` and `O=C1NC(=S)NC(=O)C1=Cc1cn(-c2ccccc2)nc1-c1cc2cc(Br)c(Br)cc2oc1=O` are the same in MIC: 150 µg/mL (≈ 257 µM) for the first, 150 µg/mL (≈ 250 µM) for the second.

`O=C1NC(=O)C(=Cc2cn(-c3ccccc3)nc2-c2cc3cc4ccccc4cc3oc2=O)C(=O)N1` and `O=C1NC(=O)C(=Cc2cn(-c3ccccc3)nc2-c2cc3cc(Cl)ccc3oc2=O)C(=O)N1` are the same in MIC: 150 µg/mL (≈ 315 µM) for the first, 150 µg/mL (≈ 325 µM) for the second.

First: O=C1NC(=S)NC(=O)C1=Cc1cn(-c2ccccc2)nc1-c1cc2cc(Cl)ccc2oc1=O
Second: O=C1NC(=S)NC(=O)C1=Cc1cn(-c2ccccc2)nc1-c1cc2ccccc2oc1=O
The MIC of the first is 2-fold lower: 150 µg/mL (≈ 315 µM) for the first, 300 µg/mL (≈ 678 µM) for the second.

Work on `O=C1NC(=S)NC(=O)C1=Cc1cn(-c2ccccc2)nc1-c1cc2cc(Cl)c(Cl)cc2oc1=O` yielded an MIC of 300 µg/mL (≈ 587 µM).

Each molecule was assayed on Klebsiella pneumoniae (assay: Antimicrobial activity against Klebsiella pneumoniae assessed as growth inhibition after 24 hr by broth dilution method). Details: not given.
Format: functional

Compared with `O=C1NC(=O)C(=Cc2cn(-c3ccccc3)nc2-c2cc3cc(Br)c(Br)cc3oc2=O)C(=O)N1`, `O=C1NC(=S)NC(=O)C1=Cc1cn(-c2ccccc2)nc1-c1cc2cc(Br)c(Br)cc2oc1=O` is 2-fold lower in MIC: 300 µg/mL (≈ 514 µM) for the first, 150 µg/mL (≈ 250 µM) for the second.

Going from `O=C1NC(=O)C(=Cc2cn(-c3ccccc3)nc2-c2cc3cc4ccccc4cc3oc2=O)C(=O)N1` to `O=C1NC(=O)C(=Cc2cn(-c3ccccc3)nc2-c2cc3cc(Cl)ccc3oc2=O)C(=O)N1`, the MIC falls from 300 µg/mL (≈ 630 µM) to 150 µg/mL (≈ 325 µM) (2-fold).

`O=C1NC(=S)NC(=O)C1=Cc1cn(-c2ccccc2)nc1-c1cc2cc(Cl)ccc2oc1=O` and `O=C1NC(=S)NC(=O)C1=Cc1cn(-c2ccccc2)nc1-c1cc2ccccc2oc1=O` are the same in MIC: 150 µg/mL (≈ 315 µM) for the first, 150 µg/mL (≈ 339 µM) for the second.

For `O=C1NC(=S)NC(=O)C1=Cc1cn(-c2ccccc2)nc1-c1cc2cc(Cl)c(Cl)cc2oc1=O`, the MIC was 150 µg/mL (≈ 293 µM).

What follows are molecules tested on Escherichia coli (assay: Antimicrobial activity against Escherichia coli assessed as growth inhibition after 24 hr by broth dilution method). Details: not given.
Format: functional

`O=C1NC(=O)C(=Cc2cn(-c3ccccc3)nc2-c2cc3cc(Br)c(Br)cc3oc2=O)C(=O)N1` and `O=C1NC(=S)NC(=O)C1=Cc1cn(-c2ccccc2)nc1-c1cc2cc(Br)c(Br)cc2oc1=O` are the same in MIC: 150 µg/mL (≈ 257 µM) for the first, 150 µg/mL (≈ 250 µM) for the second.

Going from `O=C1NC(=O)C(=Cc2cn(-c3ccccc3)nc2-c2cc3cc4ccccc4cc3oc2=O)C(=O)N1` to `O=C1NC(=O)C(=Cc2cn(-c3ccccc3)nc2-c2cc3cc(Cl)ccc3oc2=O)C(=O)N1`, the MIC falls from 300 µg/mL (≈ 630 µM) to 150 µg/mL (≈ 325 µM) (2-fold).

First: O=C1NC(=S)NC(=O)C1=Cc1cn(-c2ccccc2)nc1-c1cc2cc(Cl)ccc2oc1=O
Second: O=C1NC(=S)NC(=O)C1=Cc1cn(-c2ccccc2)nc1-c1cc2ccccc2oc1=O
The MIC of the first is 2-fold lower: 300 µg/mL (≈ 629 µM) for the first, 600 µg/mL (≈ 1360 µM) for the second.

`O=C1NC(=S)NC(=O)C1=Cc1cn(-c2ccccc2)nc1-c1cc2cc(Cl)c(Cl)cc2oc1=O` gave an MIC of 600 µg/mL (≈ 1170 µM).

Each molecule was assayed on Bacillus subtilis (assay: Antimicrobial activity against Bacillus subtilis assessed as growth inhibition after 24 hr by broth dilution method). Details: not given.
Format: functional

`O=C1NC(=O)C(=Cc2cn(-c3ccccc3)nc2-c2cc3cc(Br)c(Br)cc3oc2=O)C(=O)N1` and `O=C1NC(=S)NC(=O)C1=Cc1cn(-c2ccccc2)nc1-c1cc2cc(Br)c(Br)cc2oc1=O` are the same in MIC: 150 µg/mL (≈ 257 µM) for the first, 150 µg/mL (≈ 250 µM) for the second.

`O=C1NC(=O)C(=Cc2cn(-c3ccccc3)nc2-c2cc3cc4ccccc4cc3oc2=O)C(=O)N1` and `O=C1NC(=O)C(=Cc2cn(-c3ccccc3)nc2-c2cc3cc(Cl)ccc3oc2=O)C(=O)N1` are the same in MIC: 150 µg/mL (≈ 315 µM) for the first, 150 µg/mL (≈ 325 µM) for the second.

Compared with `O=C1NC(=S)NC(=O)C1=Cc1cn(-c2ccccc2)nc1-c1cc2cc(Cl)ccc2oc1=O`, `O=C1NC(=S)NC(=O)C1=Cc1cn(-c2ccccc2)nc1-c1cc2ccccc2oc1=O` is 2-fold higher in MIC: 150 µg/mL (≈ 315 µM) for the first, 300 µg/mL (≈ 678 µM) for the second.

`O=C1NC(=S)NC(=O)C1=Cc1cn(-c2ccccc2)nc1-c1cc2cc(Cl)c(Cl)cc2oc1=O` was tested, and the MIC was 300 µg/mL (≈ 587 µM).

The molecules below were run on Staphylococcus aureus (assay: Antimicrobial activity against Staphylococcus aureus assessed as growth inhibition after 24 hr by broth dilution method). Details: not given.
Format: functional

`O=C1NC(=O)C(=Cc2cn(-c3ccccc3)nc2-c2cc3cc(Br)c(Br)cc3oc2=O)C(=O)N1` and `O=C1NC(=S)NC(=O)C1=Cc1cn(-c2ccccc2)nc1-c1cc2cc(Br)c(Br)cc2oc1=O` are the same in MIC: 150 µg/mL (≈ 257 µM) for the first, 150 µg/mL (≈ 250 µM) for the second.

Compared with `O=C1NC(=O)C(=Cc2cn(-c3ccccc3)nc2-c2cc3cc4ccccc4cc3oc2=O)C(=O)N1`, `O=C1NC(=O)C(=Cc2cn(-c3ccccc3)nc2-c2cc3cc(Cl)ccc3oc2=O)C(=O)N1` is 2-fold lower in MIC: 300 µg/mL (≈ 630 µM) for the first, 150 µg/mL (≈ 325 µM) for the second.

First: O=C1NC(=S)NC(=O)C1=Cc1cn(-c2ccccc2)nc1-c1cc2cc(Cl)ccc2oc1=O
Second: O=C1NC(=S)NC(=O)C1=Cc1cn(-c2ccccc2)nc1-c1cc2ccccc2oc1=O
The MIC of the first is 2-fold higher: 300 µg/mL (≈ 629 µM) for the first, 150 µg/mL (≈ 339 µM) for the second.

`O=C1NC(=S)NC(=O)C1=Cc1cn(-c2ccccc2)nc1-c1cc2cc(Cl)c(Cl)cc2oc1=O` showed an MIC of 150 µg/mL (≈ 293 µM).

These molecules were tested on Staphylococcus epidermidis (assay: Antimicrobial activity against Staphylococcus epidermidis assessed as growth inhibition after 24 hr by broth dilution method). Details: not given.
Format: functional

Compared with `O=C1NC(=O)C(=Cc2cn(-c3ccccc3)nc2-c2cc3cc(Br)c(Br)cc3oc2=O)C(=O)N1`, `O=C1NC(=S)NC(=O)C1=Cc1cn(-c2ccccc2)nc1-c1cc2cc(Br)c(Br)cc2oc1=O` is 2-fold higher in MIC: 150 µg/mL (≈ 257 µM) for the first, 300 µg/mL (≈ 500 µM) for the second.

First: O=C1NC(=O)C(=Cc2cn(-c3ccccc3)nc2-c2cc3cc4ccccc4cc3oc2=O)C(=O)N1
Second: O=C1NC(=O)C(=Cc2cn(-c3ccccc3)nc2-c2cc3cc(Cl)ccc3oc2=O)C(=O)N1
The MIC of the first is 2-fold higher: 300 µg/mL (≈ 630 µM) for the first, 150 µg/mL (≈ 325 µM) for the second.

Compared with `O=C1NC(=S)NC(=O)C1=Cc1cn(-c2ccccc2)nc1-c1cc2cc(Cl)ccc2oc1=O`, `O=C1NC(=S)NC(=O)C1=Cc1cn(-c2ccccc2)nc1-c1cc2ccccc2oc1=O` is 4-fold lower in MIC: 600 µg/mL (≈ 1260 µM) for the first, 150 µg/mL (≈ 339 µM) for the second.

Work on `O=C1NC(=S)NC(=O)C1=Cc1cn(-c2ccccc2)nc1-c1cc2cc(Cl)c(Cl)cc2oc1=O` yielded an MIC of 300 µg/mL (≈ 587 µM).

The molecules below were run on Aspergillus niger (assay: Antimicrobial activity against Aspergillus niger assessed as growth inhibition zone after 48 hr by agar cup bioassay). Details: not given.
Format: functional, organism-based

`O=C1NC(=S)NC(=O)C1=Cc1cn(-c2ccccc2)nc1-c1cc2cc(Br)c(Br)cc2oc1=O` was tested, and the “growth inhibition (GI)” value was “inactive”.
With `O=C1NC(=O)C(=Cc2cn(-c3ccccc3)nc2-c2cc3cc4ccccc4cc3oc2=O)C(=O)N1` the “growth inhibition (GI)” value was “inactive”.
In the case of `O=C1NC(=S)NC(=O)C1=Cc1cn(-c2ccccc2)nc1-c1cc2cc(Cl)ccc2oc1=O`, the “growth inhibition (GI)” value is reported as “inactive”.
`O=C1NC(=S)NC(=O)C1=Cc1cn(-c2ccccc2)nc1-c1cc2cc(Cl)c(Cl)cc2oc1=O` was tested, and the “growth inhibition (GI)” value was “inactive”.
With `O=C1NC(=S)NC(=O)C1=Cc1cn(-c2ccccc2)nc1-c1cc2ccccc2oc1=O` the “growth inhibition (GI)” value was “inactive”.
With `O=C1NC(=O)C(=Cc2cn(-c3ccccc3)nc2-c2cc3cc(Cl)ccc3oc2=O)C(=O)N1` the “growth inhibition (GI)” value was “inactive”.

These molecules were tested on Aspergillus niger (assay: Antimicrobial activity against Aspergillus niger assessed as diameter of growth inhibition zone at 150 ug/ml after 48 hr by agar cup bioassay). Details: read-out: DIZ.
Format: functional

Work on `O=C1NC(=O)C(=Cc2cn(-c3ccccc3)nc2-c2cc3cc(Br)c(Br)cc3oc2=O)C(=O)N1` yielded a zone of inhibition at 150 µg/mL of 10 mm.

Each molecule was assayed on Aspergillus niger (assay: Antimicrobial activity against Aspergillus niger assessed as diameter of growth inhibition zone at 100 ug/ml after 48 hr by agar cup bioassay). Details: read-out: DIZ.
Format: functional

With `O=C1NC(=O)C(=Cc2cn(-c3ccccc3)nc2-c2cc3cc(Br)c(Br)cc3oc2=O)C(=O)N1` the zone of inhibition at 100 µg/mL was 7 mm.
